# Results: patent US20070227388A1, “Tetrakisazo Compound, Coloring Matter for Recording, Ink Composition and Colored Article” (priority 2004, published 2007)
# Assay: solubility test in water (ammonia alkali) by filter paper spot
# Assay type: physicochemical
# Description: (Desalination process) After 83.0 parts of the compound of Formula (28) obtained in the fifth process was dissolved in 800 parts of water, 900 parts of methanol was added, and the deposited coloring matter was filtered and then dried to obtain 66.4 parts of desalted black coloring matter of Formula (28) (a compound No. 1 in Table 1: Na salt). The maximum absorption wavelength (λ max) of this coloring matter in water was 619 nm, and solubility test in water (ammonia alkali) by filter paper spot was no less than 100 g/l. [drawing 72]
row,solubility,Compound
1,≥ 100 mg/mL,COc1ccc(N=Nc2c(S(=O)(=O)O)cc3cc(S(=O)(=O)O)c(N=Nc4cc(S(=O)(=O)O)c5cc(S(=O)(=O)O)c(N=Nc6ccc7c(O)c(N=Nc8ccccc8S(=O)(=O)O)c(S(=O)(=O)O)cc7c6)c(O)c5c4N)cc3c2O)c(S(=O)(=O)O)c1 [No. 2]
2,≥ 100 mg/mL,Nc1c(N=Nc2ccc3c(O)c(N=Nc4cc(C(=O)O)cc(C(=O)O)c4)c(S(=O)(=O)O)cc3c2S(=O)(=O)O)cc(S(=O)(=O)O)c2cc(S(=O)(=O)O)c(N=Nc3ccc4c(O)c(N=Nc5cc(C(=O)O)cc(C(=O)O)c5)c(S(=O)(=O)O)cc4c3S(=O)(=O)O)c(O)c12 [No. 17]
3,≥ 100 mg/mL,COc1ccc(N=Nc2c(S(=O)(=O)O)cc3cc(N=Nc4c(S(=O)(=O)O)cc5c(S(=O)(=O)O)cc(N=Nc6ccc7cc(S(=O)(=O)O)c(N=Nc8ccc(OC)cc8S(=O)(=O)O)c(O)c7c6)c(N)c5c4O)ccc3c2O)c(S(=O)(=O)O)c1 [No. 21]
4,≥ 100 mg/mL,COc1ccc(N=Nc2c(S(=O)(=O)O)cc3c(S(=O)(=O)O)c(N=Nc4cc(S(=O)(=O)O)c5cc(S(=O)(=O)O)c(N=Nc6ccc7c(O)c(N=Nc8ccccc8S(=O)(=O)O)c(S(=O)(=O)O)cc7c6)c(O)c5c4N)ccc3c2O)c(S(=O)(=O)O)c1 [No. 1]
5,≥ 100 mg/mL,Nc1c(N=Nc2ccc3cc(S(=O)(=O)O)c(N=Nc4ccc([N+](=O)[O-])cc4S(=O)(=O)O)c(O)c3c2)cc(S(=O)(=O)O)c2cc(S(=O)(=O)O)c(N=Nc3ccc4c(O)c(N=Nc5ccc([N+](=O)[O-])cc5S(=O)(=O)O)c(S(=O)(=O)O)cc4c3S(=O)(=O)O)c(O)c12 [No. 6]
6,≥ 100 mg/mL,COc1ccc(N=Nc2c(S(=O)(=O)O)cc3c(S(=O)(=O)O)c(N=Nc4cc(S(=O)(=O)O)c5cc(S(=O)(=O)O)c(N=Nc6ccc7c(O)c(N=Nc8ccc(OC)cc8S(=O)(=O)O)c(S(=O)(=O)O)cc7c6S(=O)(=O)O)c(O)c5c4N)ccc3c2O)c(S(=O)(=O)O)c1 [No. 19]
7,≥ 100 mg/mL,Nc1c(N=Nc2cc3c(O)c(N=Nc4ccc([N+](=O)[O-])cc4S(=O)(=O)O)c(S(=O)(=O)O)cc3cc2S(=O)(=O)O)cc(S(=O)(=O)O)c2cc(S(=O)(=O)O)c(N=Nc3ccc4c(O)c(N=Nc5ccc([N+](=O)[O-])cc5S(=O)(=O)O)c(S(=O)(=O)O)cc4c3S(=O)(=O)O)c(O)c12 [No. 13]

row,Compound,solubility
1,Nc1c(N=Nc2ccc3c(O)c(N=Nc4ccc([N+](=O)[O-])cc4S(=O)(=O)O)c(S(=O)(=O)O)cc3c2S(=O)(=O)O)cc(S(=O)(=O)O)c2cc(S(=O)(=O)O)c(N=Nc3ccc4c(O)c(N=Nc5ccc([N+](=O)[O-])cc5S(=O)(=O)O)c(S(=O)(=O)O)cc4c3S(=O)(=O)O)c(O)c12 [No. 16],≥ 100 mg/mL
